Legend:
PARP-1 = biological target: T1, PARP-1 (Homo sapiens, UniProt P09874); test: PARP/Apoptosis Universal Colorimetric Assay Kit (ELISA), PARP inhibitory activity; assay type: biochemical; settings: for IC50: Elise test methods April 2020, 0.5 U/well PARP-HSA Enzyme, read-out: IC50-values for different PARP-inhibitors, as calculated by ELISA; for IC50, comparison in words: ELISA
T1 construct: purchased BioTechne—R&D Systems 4677-096-K
Protocol: The inhibitors (13F, 14F, 13I-FL, 13F-FL, 14F-FL, 13I and 14I) were kept at −20° C., dissolved in DMSO at 20 mg/mL.
The PARP/Apoptosis Universal Colorimetric Assay Kit 4677-096-K was purchased from BioTechne—R&D Systems. This ELISA kit detects biotinylated poly (ADP-ribose) deposited by PARP-1 onto immobilized histones in a 96-well format. The addition of Strep-HRP (biotin-binding protein) and a colorimetric HRP substrate yields relative absorbance that correlates with PARP-1 activity. The kit is used for in vitro screening of candidate PARP-1 inhibitors and determination of IC50 values.
The protocol recommended by the provider was followed. A 1/10 serial dilution of the inhibitors (ranging from 500 μM to 0.5 nM, 7 data points in triplicate) was added to the designated wells. Wells incubated with 0.5 U/well of PARP-HSA Enzyme without inhibitor were used as the 100% activity reference point. Data was expressed as % of Maximal Activity and plotted in function of the log of concentration (M)) using Graph Pad Prism 8. IC50 values were determined using a dose-response-inhibition equation.

Cal27 cells [1] = test: In vitro cell binding study, confocal microscopy; assay type: cell-based
Protocol: (§1) 40 000 cells (FaDu, OE33, or Cal27) were plated in 24-well plates (Cell imaging plates with glass bottom, Eppendorf), and incubated for 2 days at 37° C. After removal of the medium, either 0.5 mL of media (Cond 1), 0.5 mL of 10 μM unlabeled PARPi (14F) (Cond 2) or 0.5 mL of 10 μM Olaparib (Cond 3) was added to the cells. After 30 minutes of incubation at 37° C., cells were washed with 1 mL of medium. Subsequently, 0.5 mL of 14F-FL at a final concentration of 0.1 μM was added and incubated for 15 min at 37° C. The cells were then washed thrice with 1 ml cold PBS, fixed with 1 mL 4% paraformaldehyde (VWR) for 7-10 minutes and washed again with 1 mL PBS. Finally, 0.5 mL of 1 μg/mL DAPI-staining solution (DAPI ready-made solution, Sigma) was added for at least 10 min to stain the cell nuclei.
(§2) High resolution bright field and fluorescent images of the cells were acquired on a confocal microscope (LSM800, Zeiss) with excitation and emission wavelengths of 405/455 nm for DAPI and 488/525 for BodipyFL (standard conditions). Images were taken with a Plan Apochromat 63×/1.4 oil objective. Images were analyzed with the Software ZenLITE (Zeiss).

FaDu cells [2] = test: In vitro cell binding study, confocal microscopy; assay type: cell-based
Protocol: as §1, §2

OE33 cells [3] = test: In vitro cell binding study, confocal microscopy; assay type: cell-based
Protocol: as §1, §2

Cal27 cells [4] = test: Cell binding by flow cytometry; assay type: cell-based
Protocol: (§3) 250 000 cells (FaDu, Cal27 or OE33) in suspension were incubated with 0.5 mL media, 0.5 mL 10 μM unlabeled 14F or 0.5 mL 10 μM Olaparib-analogue. After 30 min incubation at 37° C., the cells were washed once with 0.5 mL media and subsequently incubated with 0.5 mL 0.1 μM 14F-FL for 10 min at 37° C. The cells were then washed thrice with media (including 1×10 min incubation) and resuspended in FACS buffer (PBS+0.5% FBS+EDTA+N3). Finally, cells were analyzed on a flow cytometer (BD Celesta) in the GFP channel (ex 488 nm, em filter 510 nm). Data was analyzed via FlowJo software.

FaDu cells [5] = test: Cell binding by flow cytometry; assay type: cell-based
Protocol: as §3

OE33 cells [6] = test: Cell binding by flow cytometry; assay type: cell-based
Protocol: as §3

FaDu cells [7] = test: In vitro association kinetics, confocal microscopy; assay type: cell-based; settings: 0.1 μM, 37° C.
Protocol: 40 000 FaDu cells were plated in 24-well plates (Cell imaging plates with glass bottom, Eppendorf), and incubated for 2 days at 37° C. After removal of the medium, 0.5 mL of 14F-FL at a final concentration of 0.1 μM was added and incubated for 2 min, 10 min, 20 min, 30 min, 45 min or 60 min at 37° C. The cells were then washed thrice with 1 ml cold PBS, fixed with 1 mL 4% paraformaldehyde (VWR) for 7-10 minutes and washed again with 1 mL PBS. Finally, 0.5 mL of 1 μg/mL DAPI-staining solution (DAPI ready-made solution, Sigma) was added for at least 10 min to stain the cell nuclei.
as §2

FaDu cells [8] = test: In vitro dissociation kinetics, confocal microscopy; assay type: cell-based
Protocol: 40 000 FaDu cells were plated in 24-well plates (Cell imaging plates with glass bottom, Eppendrof), and incubated for 2 days at 37° C. After removal of the medium, 0.5 mL of 14F-FL at a final concentration of 0.1 μM was added and incubated for 15 min at 37° C. The cells were then washed thrice with 1 ml cold PBS, and further incubated for 0 min, 30 min, 1 h, 2 h, 4 h or 24 h in medium at 37° C. After washing once with 1 mL cold PBS, the cells were fixed with 4% paraformaldehyde (VWR) and staining with DAPI as described above.
as §2

[9] = 10 μM pretreatment 30 min, then 0.1 μM 14F-FL
[10] = 0.1 μM 14F-FL, 15 min at 37° C.
[11] = 0.1 μM 14F-FL, 10 min at 37° C.
[12] = 0.1 μM 15 min, washed, medium at 37° C.

T1 sequence (P09874 whole entry): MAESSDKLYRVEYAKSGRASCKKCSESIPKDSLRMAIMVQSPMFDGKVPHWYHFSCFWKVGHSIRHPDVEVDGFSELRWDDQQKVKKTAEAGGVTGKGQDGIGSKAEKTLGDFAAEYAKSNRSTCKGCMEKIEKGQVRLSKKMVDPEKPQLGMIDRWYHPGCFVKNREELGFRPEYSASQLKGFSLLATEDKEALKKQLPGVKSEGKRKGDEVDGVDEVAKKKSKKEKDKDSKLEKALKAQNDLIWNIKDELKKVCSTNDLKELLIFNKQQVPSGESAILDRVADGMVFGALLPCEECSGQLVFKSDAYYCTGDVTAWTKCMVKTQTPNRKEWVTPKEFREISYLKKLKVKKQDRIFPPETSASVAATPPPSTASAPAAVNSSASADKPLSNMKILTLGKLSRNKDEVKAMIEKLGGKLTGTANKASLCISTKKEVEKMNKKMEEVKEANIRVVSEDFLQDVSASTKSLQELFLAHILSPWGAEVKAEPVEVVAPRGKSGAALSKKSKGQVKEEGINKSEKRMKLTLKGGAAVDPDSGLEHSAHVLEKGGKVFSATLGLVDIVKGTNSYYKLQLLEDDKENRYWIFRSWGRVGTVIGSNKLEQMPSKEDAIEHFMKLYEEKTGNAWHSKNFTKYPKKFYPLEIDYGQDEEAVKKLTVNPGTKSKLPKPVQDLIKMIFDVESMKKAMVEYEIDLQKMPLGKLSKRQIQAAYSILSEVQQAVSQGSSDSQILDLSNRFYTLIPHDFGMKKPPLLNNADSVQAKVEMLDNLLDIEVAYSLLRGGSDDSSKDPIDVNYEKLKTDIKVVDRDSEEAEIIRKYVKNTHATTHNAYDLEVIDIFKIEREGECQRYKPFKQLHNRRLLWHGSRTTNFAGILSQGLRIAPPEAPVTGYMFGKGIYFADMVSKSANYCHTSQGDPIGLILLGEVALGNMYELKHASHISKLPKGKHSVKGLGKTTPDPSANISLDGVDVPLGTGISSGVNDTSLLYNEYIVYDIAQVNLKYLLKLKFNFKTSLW

O=C(c1cc(Cn2c(=O)[nH]c(=O)c3cccnc32)ccc1F)N1CCN(C(=O)C2CCCC2)CC1 [Compound 13F, 1-(3-(4-(cyclopentanecarbonyl)piperazine-1-carbonyl)-4-fluorobenzyl)pyrido[2,3-d]pyrimidine-2,4(1H,3H)-dione]
IC50 (PARP-1): 50 to 500 nM

O=C(c1cc(Cn2c(=O)[nH]c(=O)c3cccnc32)ccc1I)N1CCN(C(=O)C2CCCC2)CC1 [Compound 13I, 1-(3-(4-(cyclopentanecarbonyl)piperazine-1-carbonyl)-4-iodobenzyl) pyrido [2,3-d]pyrimidine-2,4(1H,3H)-dione]
IC50 (PARP-1): > 500 nM

O=C(c1cc(Cn2c(=O)[nH]c(=O)c3ccccc32)ncc1I)N1CCN(C(=O)C2CCCC2)CC1 [Compound 14I, 1-((4-(4-(cyclopentanecarbonyl)piperazine-1-carbonyl)-5-iodopyridin-2-yl)methyl)quinazoline-2,4(1H,3H)-dione]
IC50 (PARP-1): > 500 nM

O=C(c1cc(Cn2c(=O)[nH]c(=O)c3ccccc32)ncc1F)N1CCN(C(=O)C2CCCC2)CC1 [Compound 14F, 1-((4-(4-(cyclopentanecarbonyl)piperazine-1-carbonyl)-5-fluoropyridin-2-yl)methyl)quinazoline-2,4(1H,3H)-dione]
IC50, comparison in words (PARP-1): Best IC50-values | IC50 (PARP-1): < 50 nM | 14F-FL signal after pretreatment with excess of unlabeled analogue (Cal27 cells [1]; [9]): no green fluorescent signal | 14F-FL signal after pretreatment with excess of unlabeled analogue (FaDu cells [2]; [9]): no green fluorescent signal | 14F-FL signal after pretreatment with excess of unlabeled analogue (OE33 cells [3]; [9]): no green fluorescent signal | 14F-FL binding after pretreatment with excess unlabeled compound, flow cytometry (Cal27 cells [4]; [9]): decreased the binding | 14F-FL binding after pretreatment with excess unlabeled compound, flow cytometry (FaDu cells [5]; [9]): decreased the binding | 14F-FL binding after pretreatment with excess unlabeled compound, flow cytometry (OE33 cells [6]; [9]): decreased the binding

CC1=CC(C)=[N+]2C1Cc1ccc(CCC(=O)N3CCN(C(=O)c4cc(Cn5c(=O)[nH]c(=O)c6cccnc65)ccc4I)CC3)n1[B-]2(F)F (stereo not shown) [Compound 13I-FL, 1-(3-(4-(3-(5,5-difluoro-7,9-dimethyl-5H-5I4,6I4-dipyrrolo[1,2-c:2′,1′-f][1,3,2]diazaborinin-3-yl)propanoyl)piperazine-1-carbonyl)-4-iodobenzyl)pyrido[2,3-d]pyrimidine-2,4(1H,3H)-dione]
IC50 (PARP-1): > 500 nM

CC1=CC(C)=[N+]2C1=Cc1ccc(CCC(=O)N3CCN(C(=O)c4cc(Cn5c(=O)[nH]c(=O)c6ccccc65)ncc4F)CC3)n1[B-]2(F)F [Compound 14F-FL, 1-((4-(4-(3-(5,5-difluoro-7,9-dimethyl-5H-5I4,6I4-dipyrrolo[1,2-c:2′,1′-f][1,3,2]diazaborinin-3-yl)propanoyl)piperazine-1-carbonyl)-5-fluoropyridin-2-yl)methyl)quinazoline-2,4(1H,3H)-dione]
IC50, comparison in words (PARP-1): Best IC50-values | IC50 (PARP-1): < 50 nM | fluorescent signal in the nuclei (Cal27 cells [1]; [10]): intense green fluorescent signal | fluorescent signal in the nuclei (FaDu cells [2]; [10]): intense green fluorescent signal | fluorescent signal in the nuclei (OE33 cells [3]; [10]): intense green fluorescent signal | cell binding, flow cytometry (Cal27 cells [4]; [11]): significant binding | cell binding, flow cytometry (FaDu cells [5]; [11]): significant binding | cell binding, flow cytometry (OE33 cells [6]; [11]): significant binding | incubation time to maximal binding (FaDu cells [7]): ≤ 10 min | retention on target after binding (FaDu cells [8]; [12]): remains bound to its target for a few hours | time from which the signal in the nucleus gradually decreases (FaDu cells [8]; [12]): 2 to 4 h | signal in the nuclei after 24 h (FaDu cells [8]; 24 h in medium at 37° C. after washing): some signal can still be observed

CC1=CC(C)=[N+]2C1Cc1ccc(CCC(=O)N3CCN(C(=O)c4cc(Cn5c(=O)[nH]c(=O)c6cccnc65)ccc4F)CC3)n1[B-]2(F)F (stereo not shown) [Compound 13F-FL, 1-(3-(4-(3-(5,5-difluoro-7,9-dimethyl-5H-5I4,6I4-dipyrrolo[1,2-c:2′,1′-f][1,3,2]diazaborinin-3-yl)propanoyl)piperazine-1-carbonyl)-4-fluorobenzyl)pyrido[2,3-d]pyrimidine-2,4(1H,3H)-dione]
IC50 (PARP-1): 50 to 500 nM

Source: patent publication US12570651B2, “Quinazoline-2,4-dione derivatives as PARP inhibitors” (Suzhou Four Health Pharmaceuticals Co., Ltd., priority 2019, dated 2026)
